Measured values published in patent US20100209496A1, “LIQUID AND SEMI-SOLID PHARMACEUTICAL FORMULATIONS FOR ORAL ADMINISTRATION OF A SUBSTITUTED AMIDE” (priority 2006, published 2010).
Like-named read-outs stand apart in the source and are kept apart here. Marks after values point to notes of the source that are not given here.

Experiments:
[1] = Compound I chemical stability in various liquid vehicles at 40° C.; assay type: physicochemical; settings: 40° C. vs −20° C. control
Description: Stability of 3-[(3aR,4R,5S,7aS)-5-{(1R)-1-[3,5-bis(Trifluoromethyl)phenyl]ethoxy}-4-(4-fluorophenyl)-octahydro-2H-isoindol-2-yl]cyclopent-2-en-1-one, (Compound I) in Various Liquid Vehicles

[2] = Compound I Form I solubility in various liquid vehicles; assay type: physicochemical
[3] = Pharmacokinetics after oral administration of liquid filled capsules; assay type: in vivo, male Beagle dogs; settings: male, Beagle, dog, plasma, 40 mg, 40 mg oral, Mean ± SD; for AUC(0-t): read-out: AUC0-24
[4] = liquid filled capsules with Imwitor742/Tween80 (75:25), male Beagle dogs
[5] = liquid filled capsules with Imwitor742:Tween80 (50:50), male Beagle dogs
[6] = liquid filled capsules with pure Imwitor742, male Beagle dogs

C[C@@H](O[C@H]1CC[C@@H]2CN(C3=CC(=O)CC3)C[C@H]2[C@@H]1c1ccc(F)cc1)c1cc(C(F)(F)F)cc(C(F)(F)F)c1 [Compound I, 3-[(3aR,4R,5S,7aS)-5-{(1R)-1-[3,5-bis(Trifluoromethyl)phenyl]ethoxy}-4-(4-fluorophenyl)-octahydro-2H-isoindol-2-yl]cyclopent-2-en-1-one]
Chemical stability ([1]; 1 mg Compound I/g vehicle, 1:1 Imwitor 742:Tween 80 +0.05% PG + 0.05% BHA, 1 wk): 102.2 % claim
Chemical stability ([1]; 1 mg Compound I/g vehicle, 1:1 Imwitor 742:Tween 80 +0.05% PG + 0.05% BHA, 18 wk): 94.7 % claim
Chemical stability ([1]; 1 mg Compound I/g vehicle, 1:1 Imwitor 742:Tween 80 +0.05% PG + 0.05% BHT, 1 wk): 99.4 % claim
Chemical stability ([1]; 1 mg Compound I/g vehicle, 1:1 Imwitor 742:Tween 80 +0.05% PG + 0.05% BHT, 18 wk): 93.7 % claim
Chemical stability ([1]; 1 mg Compound I/g vehicle, 1:1 Imwitor 742:Tween 80 +0.05% PG + 0.05% NaSO3, 1 wk): 98.5 % claim
Chemical stability ([1]; 1 mg Compound I/g vehicle, 1:1 Imwitor 742:Tween 80 +0.1% Ascorbic Acid Palmitate, 1 wk): 94.2 % claim
Chemical stability ([1]; 1 mg Compound I/g vehicle, 1:1 Imwitor 742:Tween 80 +0.1% Ascorbic Acid Palmitate, 4 wk): 89.4 % claim
Chemical stability ([1]; 1 mg Compound I/g vehicle, 1:1 Imwitor 742:Tween 80 +0.1% BHA, 1 wk): 98.4 % claim
Chemical stability ([1]; 1 mg Compound I/g vehicle, 1:1 Imwitor 742:Tween 80 +0.1% BHA, 4 wk): 96.1 % claim
Chemical stability ([1]; 1 mg Compound I/g vehicle, 1:1 Imwitor 742:Tween 80 +0.1% Propyl Gallate, 1 wk): 99.6 % claim
Chemical stability ([1]; 1 mg Compound I/g vehicle, 1:1 Imwitor 742:Tween 80 +0.1% Propyl Gallate, 4 wk): 97.7 % claim
Chemical stability ([1]; 1 mg Compound I/g vehicle, 1:1 Imwitor 742:Tween 80 +0.1% Propyl Gallate, 18 wk): 93.1 % claim
Chemical stability ([1]; 1 mg Compound I/g vehicle, 1:1 Imwitor 742:Tween 80 +0.1% α-tocopherol, 1 wk): 86.7 % claim
Chemical stability ([1]; 1 mg Compound I/g vehicle, 1:1 Imwitor 742:Tween 80 +0.1% α-tocopherol, 4 wk): 71.1 % claim
Chemical stability ([1]; 1 mg Compound I/g vehicle, 1:1 Imwitor 742:Tween 80, 1 wk): 95.2 % claim
Chemical stability ([1]; 1 mg Compound I/g vehicle, 1:1 Imwitor 742:Tween 80, 4 wk): 90.4 % claim
Chemical stability ([1]; 1 mg Compound I/g vehicle, 1:1 Imwitor 742:Tween 80, 5 wk): 83.8 % claim
Chemical stability ([1]; 1 mg Compound I/g vehicle, 1:1 Imwitor 742:Tween 80, 18 wk): 73.7 % claim
Chemical stability ([1]; 1 mg Compound I/g vehicle, 6:4 Imwitor 742:Propylene Glycol, 1 wk): 100.2 % claim
Chemical stability ([1]; 1 mg Compound I/g vehicle, 6:4 Imwitor 742:Propylene Glycol, 2 wk): 100.6 % claim
Chemical stability ([1]; 1 mg Compound I/g vehicle, 6:4 Imwitor 742:Propylene Glycol, 4 wk): 100.0 % claim
Chemical stability ([1]; 1 mg Compound I/g vehicle, 6:4 Imwitor 742:Propylene Glycol, 8 wk): 100.6 % claim
Chemical stability ([1]; 1 mg Compound I/g vehicle, 9:1 Imwitor 742:Tween 80, 1 wk): 99.6 % claim
Chemical stability ([1]; 1 mg Compound I/g vehicle, 9:1 Imwitor 742:Tween 80, 9.5 wk): 96.4 % claim
Chemical stability ([1]; 1 mg Compound I/g vehicle, Capmul MCM C8, 1 wk): 99.0 % claim
Chemical stability ([1]; 1 mg Compound I/g vehicle, Capmul MCM C8, 32.5 wk): 78.1 % claim
Chemical stability ([1]; 1 mg Compound I/g vehicle, Capmul PG-8, 1 wk): 99.7 % claim
Chemical stability ([1]; 1 mg Compound I/g vehicle, Imwitor 742, 1 wk): 99.8 % claim
Chemical stability ([1]; 1 mg Compound I/g vehicle, Imwitor 742, 5 wk): 98.8 % claim
Chemical stability ([1]; 1 mg Compound I/g vehicle, Imwitor 742, 9.5 wk): 99.8 % claim
Chemical stability ([1]; 1 mg Compound I/g vehicle, Imwitor 742, 32.5 wk): 97.0 % claim
Chemical stability ([1]; at 10 mg/g, Imwitor 742 + 0.75 eq HCl, 1 wk): 100.6 % claim
Chemical stability ([1]; at 10 mg/g, Imwitor 742:Tween 80 +0.75 eq Benzenesulfonic Acid (acid not completely dissolved), 1 wk): 99.1* % claim
Chemical stability ([1]; at 10 mg/g, Imwitor 742:Tween 80 +0.75 eq HCl, 1 wk): 95.2 % claim
Chemical stability ([1]; at 10 mg/g, Imwitor 742:Tween 80 +0.75 eq Phosphoric Acid, 1 wk): 96.4 % claim
Chemical stability ([1]; at 10 mg/g, Imwitor 742:Tween 80 +0.75 eq Sulfuric Acid, 1 wk): 82.9 % claim
Chemical stability ([1]; at 10 mg/g, PEG 400 + 0.75 eq HCl, 1 wk): 60.3 % claim
Chemical stability ([1]; at 10 mg/g, Propylene Glycol + 0.75 eq HCl, 1 wk): 95.2 % claim
Solubility ([2]; Form I, 0.5% Methylcellulose, Room Temp): 0.001 mg/g of formulation
Solubility ([2]; Form I, 1:1 Imwitor:Tween + 1 eq HCl, Room Temp): >57 mg/g of formulation
Solubility ([2]; Form I, Acconon MC-8, 35° C.): <1 mg/g of formulation
Solubility ([2]; Form I, Capmul MCM C-8, 35° C.): 53 mg/g of formulation
Solubility ([2]; Form I, Capmul PG-8, 35° C.): 50 mg/g of formulation
Solubility ([2]; Form I, Capmul PG-12, 35° C.): 25 mg/g of formulation
Solubility ([2]; Form I, Capryol PGMC, 30° C.): 29 mg/g of formulation
Solubility ([2]; Form I, Capryol PGMC, Room Temp): >6 mg/g of formulation
Solubility ([2]; Form I, Captex 200P, 35° C.): 2 mg/g of formulation
Solubility ([2]; Form I, Corn Oil, Room Temp): <0.1 mg/g of formulation
Solubility ([2]; Form I, Cremophor EL, Room Temp): 2 mg/g of formulation
Solubility ([2]; Form I, Ethanol, Room Temp): 58 mg/g of formulation
Solubility ([2]; Form I, Gelucire 44/14, 65° C.): 4 mg/g of formulation
Solubility ([2]; Form I, Glycerin, Room Temp): <0.5 mg/g of formulation
Solubility ([2]; Form I, Imwitor 308, 35° C.): 58 mg/g of formulation
Solubility ([2]; Form I, Imwitor 642, 35° C.): 78 mg/g of formulation
Solubility ([2]; Form I, Imwitor 742, 30° C.): 43 mg/g of formulation
Solubility ([2]; Form I, Imwitor 742, 35° C.): 46 mg/g of formulation
Solubility ([2]; Form I, Imwitor 742, Room Temp): >6 mg/g of formulation
Solubility ([2]; Form I, Imwitor 988, 35° C.): 54 mg/g of formulation
Solubility ([2]; Form I, Labrafil M1944CS, 35° C.): 4 mg/g of formulation
Solubility ([2]; Form I, Labrafil M2125CS, 35° C.): 4 mg/g of formulation
Solubility ([2]; Form I, Labrafil M2125CS, Room Temp): 5 mg/g of formulation
Solubility ([2]; Form I, Labrasol, 35° C.): 11 mg/g of formulation
Solubility ([2]; Form I, Labrasol, Room Temp): 7 mg/g of formulation
Solubility ([2]; Form I, Miglyol 812, Room Temp): 0.4 mg/g of formulation
Solubility ([2]; Form I, Olive Oil, Room Temp): <0.1 mg/g of formulation
Solubility ([2]; Form I, PEG 400:water (92:8) + 1 eq HCl, Room Temp): 24 mg/g of formulation
Solubility ([2]; Form I, PEG 400:water (92:8) + 1 eq NaOH, Room Temp): 1.3 mg/g of formulation
Solubility ([2]; Form I, PEG 400:water (92:8), Room Temp): 1.0 mg/g of formulation
Solubility ([2]; Form I, PEG 400, Room Temp): 2 mg/g of formulation
Solubility ([2]; Form I, Peceol, 35° C.): 19 mg/g of formulation
Solubility ([2]; Form I, Propylene Glycol, 35° C.): 8 mg/g of formulation
Solubility ([2]; Form I, Propylene Glycol, Room Temp): 5 mg/g of formulation
Solubility ([2]; Form I, Soybean Oil, Room Temp): <0.1 mg/g of formulation
Solubility ([2]; Form I, Tween 20, Room Temp): 2 mg/g of formulation
Solubility ([2]; Form I, Tween 80, Room Temp): 1 mg/g of formulation
Solubility ([2]; Form I, Water, Room Temp): <0.0002 mg/g of formulation
Solubility ([2]; Form I, pH 1.3 aqueous, Room Temp): 0.001 mg/g of formulation
Solubility ([2]; Form I, pH 2.2 to 10.1 aqueous, Room Temp): <0.0002 mg/g of formulation
Solubility ([2]; aqueous medium, read-out: aqueous solubility): < 0.2 µg/mL
solubility in Miglyol 812 ([2]; relative to a fully efficacious amount of solubilized compound in a 500 mg capsule): not sufficiently soluble
Cmax [3, 4]: 4.06 ± 0.49 µM
Tmax [3, 4]: 3.33 ± 1.03 h
AUC(0-t) [3, 4]: 65.4 ± 14.7 µM·h
Cmax [3, 5]: 3.04 ± 0.44 µM
Tmax [3, 5]: 3.67 ± 0.82 h
AUC(0-t) [3, 5]: 49 ± 11.5 µM·h
Cmax [3, 6]: 4.22 ± 0.54 µM
Tmax [3, 6]: 4.67 ± 1.63 h
AUC(0-t) [3, 6]: 69 ± 14.2 µM·h
